Results reported in US20220152048A1, “Botanical Extracts and Compounds from Castanea Plants and Methods of Use” (Emory University, priority 2019, published 2022).
In brackets after ≈: the same amount, converted by molar mass.

How the values were obtained:
[1] = system: Staphylococcus aureus reporter strain of agr I expression (AH1677); test: agr I reporter strain AH1677 dose range (FIG. 3); assay type: cell-based; details: strain AH1677, fluorescence (FLD) of the gene reporter
Procedure: Strain AH1677 was treated with a range of doses of SF6, SF7, and a combination of the two. OD refers to growth, while FLD refers to fluorescence of the gene reporter. […] The combined effects of SF6 and SF7 are additive; a dose 4 μg/mL SF6+4 μg/mL SF7 has the same effect as an 8 μg/mL dose of either.
(§1) Fractions were tested for quorum quenching activity against all four agr types agr P3-YFP reporter strains AH1677 (type I), AH430 (type II), AH1747 (type III), and AH1872 (type IV). Sample stock solutions were dissolved in DMSO at a concentration of 2 mg/mL. Overnight cultures of reporter strains that were grown in TSB supplemented with chloramphenicol (Cam) were inoculated into fresh TSB containing Cam to achieve a working culture OD of 0.0006. Working culture was added to 96-well microtiter plates (Costar 3603) as was sample in order to achieve a final well volume of 200 μL. Mock vehicle (DMSO) treatments were included for each reporter strain. Microtiter plates were incubated at 37° C. with shaking (1250 rpm) in a Stuart SI505 incubator (Bibby Scientific, Burlington, N.J.) with a humidified chamber. Fluorescence (top reading, 493 nm excitation, 535 nm emission, gain 60) and optical density (OD) readings at 600 nm were recorded at 18 h using a Tecan Systems (San Jose, Calif.) Infinite M200 plate reader.

[2] = system: Staphylococcus aureus reporter strains of agr (types I-IV: AH1677, AH430, AH1747, AH1872); test: Quorum quenching assay with agr P3-YFP reporter strains (fluorescence); assay type: cell-based; details: read-out: IC50 for inhibition of fluorescence across agr reporter strains
Text: Hydroperoxy-cycloartanes were isolated from the methanolic extract of the leaves of Castanea sativa, a substantial, long-lived deciduous tree that produces an edible seed, the chestnut. 224C-F2c-PF42-SF6 is a mixture of a cycloartane with a hydroperoxy group at the terminus of its alkyl chain and a carboxylic acid and methyl group replacing the gem-dimethyl group (1a) and a cycloartane with a terminal alkene and carboxylic acid in the S configuration at C24 (1b). 224C-F2c-PF42-SF7 is a cycloartane with a terminal alkene and carboxylic acid in the R configuration at C24 (2). […] The compounds 2 and SF6 were evaluated for the ability to inhibit fluorescence of Staphylococcus aureus reporter strains of agr, the main gene regulating quorum sensing. Additionally, 2 and SF6 were evaluated for cytotoxicity against human immortalized keratinocytes (HaCaT).
After eluting from the column, 224C-F2 was split into parts a-d. […] A screen against S. aureus reporter strains of AIP-induced agr:P3 activation representing all four agr subtypes functioned as a preliminary readout of quorum sensing inhibition and the bioassay which guided fractionation. […]

S. aureus = test: Growth (optical density) of S. aureus; assay type: cell-based, Staphylococcus aureus; details: at the IC50 concentration of 8 μg/mL
Procedure: as §1

C=C(C)[C@H](CC[C@H](C)[C@@H]1CC[C@]2(C)[C@H]3[C@H](O)C[C@@H]4[C@@](C)(C(=O)O)[C@H](O)CC[C@]45C[C@]35CC[C@@]12C)OO [Compound 2]
activity in agr I reporter strain as compared to parent fraction and positive control 224C-F2c [1]: slightly reduced | IC50 [2]: 8 µg/mL (≈ 15.9 µM) | growth inhibitory effects on S. aureus (S. aureus): no growth inhibitory effects
